This is an account of results in patent publication US11529328B2, “Formulations for pharmaceutical agents” (The Curators of the University of Missouri, priority 2019, dated 2022).

≈ marks a conversion by molar mass, not a printed value.

The conditions of series [1]: cited from earlier work.
Another series has as its system DU-145. The settings on record: exposure time period of 72; previous study; read-out: reported IC50 of DXT; cited from earlier work.
For series [2] the following is noted: deionized-water; cited from earlier work.
In the next series the test system is MCF-10A. Briefly: MTS cell viability / cytotoxicity on normal MCF-10A cells. The format is cell-based, human. The settings on record: 1% v/v.

Turning to `CC(=O)O[C@@]12CO[C@@H]1C[C@H](O)[C@@]1(C)C(=O)[C@H](O)C3=C(C)[C@@H](OC(=O)[C@H](O)[C@@H](NC(=O)OC(C)(C)C)c4ccccc4)C[C@@](O)([C@@H](OC(=O)c4ccccc4)[C@H]21)C3(C)C` [native DXT, Docetaxel], in series [1], the “log P” value is on record as 4.1. Also, the IC50 in the series with DU-145 was 8.2 nM. Besides, the solubility in series [2] is 11.75 µg/mL (≈ 14.5 µM).

For Triton X, the “cytotoxicity of positive control” value in the series with MCF-10A is “strongly cytotoxic”.

As a reminder, the log P is a log measure of how a compound divides between an organic and an aqueous phase. For orientation: IC50 means the concentration at which inhibition is half-maximal. The term solubility denotes how much of the substance goes into solution per volume.
